According to PMC9260854 (Biochemistry, 2022):
Residue numbers refer to the chain shown, from its start.

Assays:
[1] = biological target: T1, SULT2B1b S347D spin-labeled at residue 247 (Homo sapiens, UniProt O00204, C225S/C278S/C81S/S247C/S347D); experiment: Initial-rate parameters, spin-labeled mutant 247; type: biochemical
T1 sequence (O00204 1-365 C81S/C225S/S247C/C278S/S347D): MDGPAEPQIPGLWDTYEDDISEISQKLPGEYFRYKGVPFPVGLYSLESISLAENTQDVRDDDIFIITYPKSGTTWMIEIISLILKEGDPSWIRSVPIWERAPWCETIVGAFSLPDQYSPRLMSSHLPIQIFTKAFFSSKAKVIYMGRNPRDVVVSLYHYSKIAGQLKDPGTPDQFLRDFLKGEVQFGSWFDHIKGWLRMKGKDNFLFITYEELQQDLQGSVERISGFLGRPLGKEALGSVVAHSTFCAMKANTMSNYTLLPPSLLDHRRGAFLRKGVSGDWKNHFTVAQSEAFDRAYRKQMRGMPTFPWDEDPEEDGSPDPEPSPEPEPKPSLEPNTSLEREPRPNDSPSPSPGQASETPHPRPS

[2] = biological target: T2, SULT2B1b C81S, C225S, C278S, S347D (Homo sapiens, UniProt O00204, C225S/C278S/C81S/S347D); experiment: Initial-rate parameters, non DTNB-reactive scaffold; type: biochemical
T2 sequence (O00204 1-365 C81S/C225S/C278S/S347D): T1 sequence (O00204 1-365 C81S/C225S/S247C/C278S/S347D) with C247S

[3] = biological target: T3, native non-tagged SULT2B1b (Homo sapiens, UniProt O00204); experiment: Initial-rate 1-HP sulfonation inhibition, native; type: biochemical; details: native enzyme
T3 sequence (O00204 1-365): T1 sequence (O00204 1-365 C81S/C225S/S247C/C278S/S347D) with S81C, S225C, C247S, S278C, D347S

[4] = biological target: T4, SULT2B1b S347D spin-labeled at residue 171 (Homo sapiens, UniProt O00204, C225S/C278S/C81S/S347D/T171C); experiment: Initial-rate parameters, spin-labeled mutant 171; type: biochemical
T4 sequence (O00204 1-365 C81S/T171C/C225S/C278S/S347D): T1 sequence (O00204 1-365 C81S/C225S/S247C/C278S/S347D) with T171C, C247S

SULT2B1b, S347D, W13A = biological target: T5, SULT2B1b, S347D, W13A (Homo sapiens, UniProt O00204, S347D/W13A); experiment: Initial-rate parameters, direct-contact mutant W13A
T5 sequence (O00204 1-365 W13A/S347D): T1 sequence (O00204 1-365 C81S/C225S/S247C/C278S/S347D) with W13A, S81C, S225C, C247S, S278C

SULT2B1b S347D = biological target: T6, SULT2B1b S347D (Homo sapiens, UniProt O00204, S347D); experiment: Initial-rate 1-HP sulfonation
T6 sequence (O00204 1-365 S347D): T1 sequence (O00204 1-365 C81S/C225S/S247C/C278S/S347D) with S81C, S225C, C247S, S278C

O=c1c(O)c(-c2ccc(O)c(O)c2)oc2cc(O)cc(O)c12 [quercetin]
Ki [1]: 320 nM
Ki [2]: 300 nM
α WT (quercetin) [3]: 0.08 ± 0.01
Ki [4]: 350 nM
Ki (SULT2B1b, S347D, W13A): 7500 nM
quercetin affinity, SULT2B1b relative to SULT1A1 (SULT2B1b S347D; affinity less for SULT2B1b than SULT1A1): ~ 68 fold
slowing of turnover at saturating quercetin (SULT2B1b S347D; at saturation): ~ 13 fold
α (fraction of enzyme turnover at saturating inhibitor), quercetin (SULT2B1b S347D; saturating PAPS and 1-HP, tag-cleaved enzyme): 0.08 ± 0.01
turnover at saturating quercetin (SULT2B1b S347D; saturating quercetin): 0.20 ± 0.02 s⁻¹
